In publication PMC12442009, “Self-Assembling Cyclic Peptide Nanotubes for the Delivery of Doxorubicin into Drug-Resistant Cancer Cells” (ACS Applied Materials & Interfaces, 2025):
Where two headings read alike, the source gives them in different places. Values belong to the molecule of their own block, whether it stands above or below them. Square brackets hold non-standard residues; d marks the D form. Peptide text beside a SMILES is read from it. * marks the point of attachment. X1 = COc1cccc2c1C(=O)c1c(O)c3c(c(O)c1C2=O)C[C@@](O)(C(CO)=NNC(=O)CCCCCN1C(=O)CC(*)C1=O)C[C@@H]3O[C@H]1C[C@H](N)[C@H](O)[C@H](C)O1; Pra = C#CC[C@H](N)C(=O)O

Key:
NCI/ADR-RES cells [1] = test: Confocal microscopy internalization and colocalization; details: 50 μM, 2 h
[2] = system: MCF-7 (breast cancer cell line); test: MTT cell growth inhibition, MCF-7; format: cell-based; details: for E max (% inhibition): inhibition at highest concentration tested (100 μM), triplicate points
[3] = Hydrazone stability / DOX release followed by mass spectrometry; format: physicochemical; details: 200 μM; for stability (DOX release) at pH 5.0: pH 5.0 (10 mM citrate buffer), followed over 72 h; for stability (DOX release) at physiological pH: pH 7.0 (H2O), 72 h
[4] = system: NCI-H460 (lung cancer cell line); details: for E max (% inhibition): inhibition at highest concentration tested (100 μM)
[5] = system: NCI/ADR-RES (doxorubicin-resistant ovarian cancer cell line); test: MTT cell growth inhibition, NCI/ADR-RES; format: cell-based; details: for E max (% inhibition): inhibition at highest concentration tested (100 μM)
NCI/ADR-RES cells [6] = test: Cell uptake by RP-HPLC of cell lysates; details: 100 μM, 120 min, 37 °C minus 4 °C, ACN/H2O extraction, RP-HPLC 460 nm, normalized vs initial concentration incubated
[7] = MCF-7, 96 h incubation, MTT, 50% growth inhibition, calculated only if E max > 50%, read-out: IC50
[8] = NCI-H460, 48 h incubation, MTT, calculated only if E max > 50%
[9] = NCI/ADR-RES, 72 h incubation, MTT
[10] = NCI/ADR-RES, 48 h incubation, MTT, calculated only if E max > 50%, read-out: IC50
[11] = NCI/ADR-RES, 72 h incubation, MTT, calculated only if E max > 50%, read-out: IC50
[12] = NCI/ADR-RES, 48 h incubation, MTT

Structure (SMILES): C#CC[C@@H]1NC(=O)[C@@H](Cc2c[nH]c3ccccc23)NC(=O)[C@H](CO)NC(=O)[C@@H](CCCCN)NC(=O)[C@H](CO)NC(=O)[C@@H](CSC2CC(=O)N(CCCCCC(=O)NN=C(CO)[C@]3(O)Cc4c(O)c5c(c(O)c4[C@@H](O[C@H]4C[C@H](N)[C@H](O)[C@H](C)O4)C3)C(=O)c3c(OC)cccc3C5=O)C2=O)NC(=O)[C@H](CCC(N)=O)NC(=O)[C@@H](CCCCN)NC1=O (some centres unmarked) [CP1-DOX] (cyclo(Q[dC](X1)S[dK]S[dW][Pra][dK]))
cell internalization / localization by confocal microscopy (NCI/ADR-RES cells [1]): mainly trapped in small compartments of the cytoplasm
IC50 [2, 7]: 3.5 ± 0.3 µM
E max (% inhibition) ([2]; MCF-7, 96 h incubation, MTT): 81 ± 1 % inhibition
stability (DOX release) at pH 5.0 [3]: drug release was observed after 72 h under these conditions, although part of the cyclic peptide conjugate survived after this time
stability (DOX release) at physiological pH [3]: much more stable at physiological pH, with a small release of the drug after 72 h
IC50 [4, 8]: 2.8 ± 0.1 µM
E max (% inhibition) ([4]; NCI-H460, 48 h incubation, MTT): 75 ± 1 % inhibition
E max (% inhibition) [5, 9]: 22 ± 4 % inhibition

Structure (SMILES): CCCCCCCCCCn1cc(C[C@@H]2NC(=O)[C@@H](Cc3c[nH]c4ccccc34)NC(=O)[C@H](CO)NC(=O)[C@@H](CCCCN)NC(=O)[C@H](CO)NC(=O)[C@@H](CSC3CC(=O)N(CCCCCC(=O)NN=C(CO)[C@]4(O)Cc5c(O)c6c(c(O)c5[C@@H](O[C@H]5C[C@H](N)[C@H](O)[C@H](C)O5)C4)C(=O)c4c(OC)cccc4C6=O)C3=O)NC(=O)[C@H](CCC(N)=O)NC(=O)[C@@H](CCCCN)NC2=O)nn1 (some centres unmarked) [CP1T10-DOX]
cell internalization / localization by confocal microscopy (NCI/ADR-RES cells [1]): cells with a colored nucleus
IC50 [2, 7]: 3.4 ± 0.4 µM
E max (% inhibition) ([2]; MCF-7, 96 h incubation, MTT): 89 ± 1 % inhibition
stability (DOX release) at pH 5.0 [3]: the molecular ion corresponding to the drug is still very minor after this time
stability (DOX release) at physiological pH [3]: much more stable at physiological pH, with a small release of the drug after 72 h
IC50 [4, 8]: 3.1 ± 0.1 µM
E max (% inhibition) ([4]; NCI-H460, 48 h incubation, MTT): 93 ± 1 % inhibition
IC50 [5, 10]: 38.4 ± 0.7 µM
IC50 [5, 11]: 10.8 ± 1.7 µM
E max (% inhibition) [5, 9]: 84 ± 3 % inhibition

Structure (SMILES): CCCCCCCCCCn1cc(C[C@@H]2NC(=O)[C@@H](Cc3c[nH]c4ccccc34)NC(=O)[C@H](CO)NC(=O)[C@@H](CCCCN)NC(=O)[C@H](CO)NC(=O)[C@@H](CS)NC(=O)[C@H](CCC(N)=O)NC(=O)[C@@H](CCCCN)NC2=O)nn1 [CP1T10]
IC50 [2, 7]: 78.8 ± 0.1 µM
E max (% inhibition) ([2]; MCF-7, 96 h incubation, MTT): 59 ± 1 % inhibition
E max (% inhibition) ([4]; NCI-H460, 48 h incubation, MTT): 28 ± 1 % inhibition
IC50 [5, 10]: 68.9 ± 2.1 µM
E max (% inhibition) [5, 12]: 70 ± 2 % inhibition

Structure (SMILES): CCCCCCCCCCCCCCn1cc(C[C@@H]2NC(=O)[C@@H](Cc3c[nH]c4ccccc34)NC(=O)[C@H](CO)NC(=O)[C@@H](CCCCN)NC(=O)[C@H](CO)NC(=O)[C@@H](CSC3CC(=O)N(CCCCCC(=O)NN=C(CO)[C@]4(O)Cc5c(O)c6c(c(O)c5[C@@H](O[C@H]5C[C@H](N)[C@H](O)[C@H](C)O5)C4)C(=O)c4c(OC)cccc4C6=O)C3=O)NC(=O)[C@H](CCC(N)=O)NC(=O)[C@@H](CCCCN)NC2=O)nn1 (some centres unmarked) [CP1T14-DOX]
E max (% inhibition) [5, 12]: 44 ± 4 % inhibition
IC50 [5, 11]: 5.7 ± 2.7 µM

Structure (SMILES): COc1cccc2c1C(=O)c1c(O)c3c(c(O)c1C2=O)C[C@@](O)(C(CO)=NNC(=O)CCCCCN1C(=O)CC(SC[C@H]2NC(=O)[C@H](CCC(N)=O)NC(=O)[C@@H](CCCCN)NC(=O)[C@H](Cc4cn(CCCCC(=O)NCCNc5ccc([N+](=O)[O-])c6nonc56)nn4)NC(=O)[C@@H](Cc4c[nH]c5ccccc45)NC(=O)[C@H](CO)NC(=O)[C@@H](CCCCN)NC(=O)[C@H](CO)NC2=O)C1=O)C[C@@H]3O[C@H]1C[C@H](N)[C@H](O)[C@H](C)O1 (some centres unmarked) [CP1T NBD -DOX]
cell uptake (NCI/ADR-RES cells [6]): 56.34%
E max (% inhibition) [5, 12]: 30 ± 3 % inhibition
IC50 [5, 11]: 3.7 ± 0.2 µM

IC50 ([2]; 96 h): 17.7 ± 0.3 µM
IC50 ([4]; 48 h): 37.9 ± 0.4 µM
IC50 ([5]; 48 h): 55.8 ± 0.7 µM
Structure (SMILES): C#CC[C@@H]1NC(=O)[C@@H](Cc2c[nH]c3ccccc23)NC(=O)[C@H](CO)NC(=O)[C@@H](CCCCN)NC(=O)[C@H](CO)NC(=O)[C@@H](CS)NC(=O)[C@H](CCC(N)=O)NC(=O)[C@@H](CCCCN)NC1=O [CP1] (cyclo([Pra][dK]Q[dC]S[dK]S[dW]))
E max (% inhibition) [5, 12]: 90 ± 1 % inhibition
